Measured values published in patent US12383535B2, “Hydrogen peroxide-responsive KEAP1-NRF2 ppi inhibitor prodrug, and preparation method therefor” (CHINA PHARMACEUTICAL UNIVERSITY, priority 2019, dated 2025).
pEC50: −log10 of the molar value.

Experiments:
[1] = Parallel artificial membrane permeability assay (PAMPA); format: in vitro ADME
Method: Potential solubility data were obtained with a pSOL model 3 instrument (pION INC, Cambridge, Massachusetts, USA). Cell membrane permeability was determined on a PAMPA Explorer instrument (pION).
Subsequently, the permeability of cell membranes was measured by standard parallel artificial membrane permeability assay (PAMPA).

[2] = system: RAW264.7 cells; assay: IL-1β, IL-6, TNF-α and NO assays in cell culture supernatant; format: cell-based, mouse; conditions: Mus musculus, RAW264.7, read-out: EC50 for reduction of extracellular NO concentration
Method: IL-1β (IL-1β (m) ELISA kit, EK0394, Boster), IL-18 (IL-18 (m) ELISA kit, EMC011, NeoBioscience), IL-6 (IL-6 (m) ELISA kit EK0411, Boster), TNF-α (TNF-α (m) ELISA kit, EK0527, Boster) and NO (nitrate/nitrite assay kit, S0023, Beyotime, China) were tested using commercially available kits according to the manufacturer's instructions.
Then, several inflammatory mediators closely related to ROS, including IL-1β, IL-6, TNF-α and NO, were further evaluated.

[3] = system: Nrf2-ARE in RAW264.7 cells; assay: ARE inductivity under LPS stimulation; format: cell-based, mouse; conditions: Mus musculus, RAW264.7, read-out: EC50 of ARE inductivity
[4] = Drug release rate by HPLC (H2O2 activation of prodrug); format: physicochemical; conditions: in the presence of H2O2, 12 h, UPLC/HRMS
Method: The target compound was dissolved in DMSO to give a 10 mM stock solution, which was then stored at −20° C. The final concentration was brought to 50 μM by adding the target compound (10 mM) to phosphate buffered saline (PBS) (10 mM, pH 7.4), and H2O2 was added. The solution was well vortexed, and then incubated at 37° C. Samples were taken at appropriate time intervals and analyzed by HPLC directly after injection, and the peak areas were recorded to calculate the percentage of the compound. The procedure was repeated three times. The following Agilent 1260 HPLC and DAD detectors were used: Agilent C18 column (4.6×150 mm, 3.5 μm); mobile phase: 70% methanol; flow rate: 0.5 mL/min. A standard curve of the compound was plotted against concentration.
After treatment with 10 mM H2O2, the prodrug pro2 was activated with prolonged incubation time and the active parent compound 2 was completely released within 3 h (HPLC-determined conversion >98%, (B) of FIG. 1 and (C) of FIG. 1).

Compound	Pe at pH 7.4 [1]	Papp ([1]; pH 7.4, read-out: Pe at pH 7.4) [×10⁻⁶ cm/s]	pEC50 [2]	pEC50 [3]	production of the active parent compound 1 [4]
COc1ccc(S(=O)(=O)Nc2ccc(N(CC(=O)O)S(=O)(=O)c3ccc(OC)cc3)c3ccccc23)cc1 [Compound 2, N-(4-((4-methoxyphenyl)sulfonamido)naphthalen-1-yl)-N-((4-methoxyphenyl)sulfonyl)glycine]	0.80 10^−6 cm/s	0.8	< 6.92	< 5.34	–
COc1ccc(S(=O)(=O)N(CC(=O)N2CCSC2=O)c2ccc(N(CC(=O)N3CCSC3=O)S(=O)(=O)c3ccc(OC)cc3)c3ccccc23)cc1 [pro1, N,N′-(naphthalene-1,4-diyl)bis(4-methoxy-N-(2-oxo-2-(2-oxothiazolidin-3-yl)ethyl)benzenesulfonamide)]	–	–	–	–	no production of the active parent compound 1 could be observed
